Experiment [1] addresses T1, SIK2 (Homo sapiens, UniProt Q9H0K1). Put plainly: SIK2 Enzymatic Assay Version 1 (ADP Glo). To be noted: enzyme 0.6 nM, 160 μM ATP and 140 μM HDAC5tide (each 2× final concentration); 30 minutes pre-incubation, 4 hours; ADPGlo luminescence; read-out: SIK2 ADP Glo IC50 (μM) (Test Example 1). The experiment is classed as biochemical. In outline: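 Room-temperature ADP-Glo luminescence assay; SIK2 added at 0.6 nM (2× final) and preincubated with compound for 30 min. Reaction stopped with ADP-Glo Reagent for 40 min, then detection reagent for at least 30 min; no-peptide (ATP-only) wells served as negative control.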
(In general: ADP-Glo first removes unused ATP, then detects ADP through luciferase.)

Experiment [2] deals with T1, SIK2. Put plainly: SIK2 Enzymatic Assay High Version 2 (High ATP). Type of experiment: biochemical. In outline:
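At room temperature, enzyme (6 nM, 2× final) was preincubated with compound for 30 min, then 6 mM ATP and 400 μM HDAC5tide (both 2× final) were added for 2 h. ADP formed was measured by ADP-Glo Max (2 h reagent, 1 h detection) using luminescence.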

pIC50: −log10 of the molar value.

T1 sequence (Q9H0K1 whole entry, species assumed): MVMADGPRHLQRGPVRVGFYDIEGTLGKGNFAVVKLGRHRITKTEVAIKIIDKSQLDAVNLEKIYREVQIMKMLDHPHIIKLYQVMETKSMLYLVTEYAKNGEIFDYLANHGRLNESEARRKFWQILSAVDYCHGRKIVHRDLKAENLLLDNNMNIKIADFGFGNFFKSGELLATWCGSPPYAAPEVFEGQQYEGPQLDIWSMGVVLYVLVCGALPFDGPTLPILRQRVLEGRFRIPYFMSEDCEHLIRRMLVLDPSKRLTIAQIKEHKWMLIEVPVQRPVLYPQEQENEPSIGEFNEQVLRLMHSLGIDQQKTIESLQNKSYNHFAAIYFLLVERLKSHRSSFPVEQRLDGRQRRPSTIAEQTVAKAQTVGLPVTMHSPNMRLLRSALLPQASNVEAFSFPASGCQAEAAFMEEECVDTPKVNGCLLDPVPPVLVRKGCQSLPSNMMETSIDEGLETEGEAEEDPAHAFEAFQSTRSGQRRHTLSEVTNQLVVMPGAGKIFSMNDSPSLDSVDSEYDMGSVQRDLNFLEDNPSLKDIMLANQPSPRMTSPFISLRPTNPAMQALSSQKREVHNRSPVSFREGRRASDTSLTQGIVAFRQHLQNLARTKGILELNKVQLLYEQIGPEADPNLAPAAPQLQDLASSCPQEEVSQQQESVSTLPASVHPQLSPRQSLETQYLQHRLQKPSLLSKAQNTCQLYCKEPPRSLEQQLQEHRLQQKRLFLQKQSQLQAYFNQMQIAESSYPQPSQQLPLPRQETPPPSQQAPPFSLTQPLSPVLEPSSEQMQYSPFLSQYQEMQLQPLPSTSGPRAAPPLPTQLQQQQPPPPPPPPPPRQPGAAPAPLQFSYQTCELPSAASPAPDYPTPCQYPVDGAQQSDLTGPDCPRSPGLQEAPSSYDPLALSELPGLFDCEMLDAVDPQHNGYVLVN

In the case of `CN1CCC[C@H](COc2cnc(C#N)cc2-c2ccn3nc(NC(=O)C4CC4)cc3c2)C1` [Example 38, (S)—N-(5-(2-cyano-5-((1-methylpiperidin-3-yl)methoxy)pyridin-4-yl)pyrazolo[1,5-a]pyridin-2-yl)cyclopropanecarboxamide], the IC50 (as a rule, the concentration that inhibits the measured activity by half) on SIK2 [1] turned out to be 0.014 µM. The pIC50 (in general, −log10 of the IC50, conventionally taken in molar units) on SIK2 [2] is 6.52.
For `N#Cc1cc(-c2ccn3nc(NC(=O)C4CC4)cc3c2)c(O[C@H]2CC[C@H](O)CC2)cn1` [Example 64, N-[5-[2-cyano-5-(4-hydroxycyclohexoxy)-4-pyridyl]pyrazolo[1,5-a]pyridin-2-yl]cyclopropanecarboxamide], in that order: 0.000387 µM and 8.06.
For `Cc1cc(Nc2cc3cc(-c4cc(OC(C)C)ncc4OCC(C)(C)C#N)ccn3n2)nc(C)n1` [Example 663, 3-[[4-[2-[(2,6-dimethylpyrimidin-4-yl)amino]pyrazolo[1,5-a]pyridin-5-yl]-6-isopropoxy-3-pyridyl]oxy]-2,2-dimethyl-propanenitrile], in that order: 0.000151 µM and above 9.08.
On to `N#Cc1cc(-c2ccn3nc(NC(=O)C4CC4)cc3c2)c(OC[C@@H]2CCN(CC(F)(F)F)C2)cn1` [Example 588, N-[5-[2-cyano-5-[[(3R)-1-(2,2,2-trifluoroethyl)pyrrolidin-3-yl]methoxy]-4-pyridyl]pyrazolo[1,5-a]pyridin-2-yl]cyclopropanecarboxamide], for which the IC50 on SIK2 [1] was determined as 0.00342 µM. The same compound had a pIC50 at SIK2 [2] of 7.23.
For the compound `Cn1ccc(Nc2cc3cc(-c4cc(C#N)ccc4OC[C@H]4CNCCO4)ccn3n2)n1` [Example 566, 3-[2-[(1-methylpyrazol-3-yl)amino]pyrazolo[1,5-a]pyridin-5-yl]-4-[[(2R)-morpholin-2-yl]methoxy]benzonitrile], at SIK2 [1], the IC50 stood at 0.00389 µM. Further, the negative logarithm of the IC50 (pIC50) against SIK2 [2] was 6.99.
For `N#Cc1cc(-c2ccn3nc(NC(=O)C4CC4)cc3c2)c(OC[C@H]2C[C@@H](O)C2)cn1` [Example 68, N-[5-[2-cyano-5-[(3-hydroxycyclobutyl)methoxy]-4-pyridyl]pyrazolo[1,5-a]pyridin-2-yl]cyclopropanecarboxamide], in that order: 0.000666 µM and 7.62.
With `N#Cc1ccc(OC[C@@H]2CNCCO2)c(-c2ccn3nc(NC(=O)C4CC4)cc3c2)c1` [Example 103, N-[5-[5-cyano-2-[[(2S)-morpholin-2-yl]methoxy]phenyl]pyrazolo[1,5-a]pyridin-2-yl]cyclopropanecarboxamide], the IC50 on SIK2 [1] is 0.00362 µM. Besides, on SIK2 [2], the negative logarithm of the IC50 (pIC50) was 7.46.
Turning to `CC#Cc1cc(-c2ccn3nc(NC(=O)C4CC4)cc3c2)c(OC2CN(C)C2)cn1` [Example 442, N-[5-[5-(1-methylazetidin-3-yl)oxy-2-prop-1-ynyl-4-pyridyl]pyrazolo[1,5-a]pyridin-2-yl]cyclopropanecarboxamide], the half-maximal inhibitory concentration (IC50) on SIK2 [1] amounted to 0.000323 µM. Further, the pIC50 on SIK2 [2] was 8.43.
For `N#Cc1cc(-c2ccn3nc(NC(=O)C4CC4)cc3c2)c(OCC2CC2)cn1` [Example 584, N-[5-[2-cyano-5-(cyclopropylmethoxy)-4-pyridyl]pyrazolo[1,5-a]pyridin-2-yl]cyclopropanecarboxamide], in that order: 0.00253 µM and 7.45.
For `Cc1cc(-c2ccn3nc(NC(=O)C4CC4)cc3c2)c(O[C@H]2CCN(C)C2)cn1` [Example 139, N-[5-[2-methyl-5-[(3S)-1-methylpyrrolidin-3-yl]oxy-4-pyridyl]pyrazolo[1,5-a]pyridin-2-yl]cyclopropanecarboxamide], in that order: 0.0033 µM and 7.14.
For `CC(C)(O)CNc1cnc(C#N)cc1-c1ccn2nc(NC(=O)C3CC3)cc2c1` [Example 81, N-[5-[2-cyano-5-[(2-hydroxy-2-methyl-propyl)amino]-4-pyridyl]pyrazolo[1,5-a]pyridin-2-yl]cyclopropanecarboxamide], in that order: 0.0154 µM and 6.56.
In the case of `Cc1cc(-c2ccn3nc(NC(=O)C4CC4)cc3c2)c(O[C@@H]2CNC[C@H](C(F)(F)F)C2)cn1` (single isomer, unassigned) [Example 445, N-[5-[2-methyl-5-[[(3*S,5*R)-5-(trifluoromethyl)-3-piperidyl]oxy]-4-pyridyl]pyrazolo[1,5-a]pyridin-2-yl]cyclopropanecarboxamide], at SIK2 [1], the IC50 amounted to 0.00109 µM. At SIK2 [2], this compound showed a pIC50 of 7.94.
The matching figures for `CN1CC[C@H](Oc2cnc(C#N)cc2-c2ccn3nc(NC(=O)C4CC4)cc3c2)C[C@@H]1C(F)(F)F` (relative stereo) [Example 30, N-(5-(2-cyano-5-(((2*R,4*S)-1-methyl-2-(trifluoromethyl)piperidin-4-yl)oxy)pyridin-4-yl)pyrazolo[1,5-a]pyridin-2-yl)cyclopropanecarboxamide]: 0.00044 µM and 8.35.
The matching figures for `Cc1cc(-c2ccn3nc(NC(=O)C4CC4)cc3c2)c(OCC2(N)COC2)cn1` [Example 144, N-[5-[5-[(3-aminooxetan-3-yl)methoxy]-2-methyl-4-pyridyl]pyrazolo[1,5-a]pyridin-2-yl]cyclopropanecarboxamide]: 0.00212 µM and 7.44.
In the case of `COCCN1CC[C@@H](Oc2cnc(C#N)cc2-c2ccn3nc(NC(=O)C4CC4)cc3c2)C1` [Example 111, (R)—N-[5-[2-cyano-5-[(3R)-1-(2-methoxyethyl)pyrrolidin-3-yl]oxy-4-pyridyl]pyrazolo[1,5-a]pyridin-2-yl]cyclopropanecarboxamide], the IC50 at SIK2 [1] is 0.00261 µM. Moreover, on SIK2 [2], the pIC50 is 7.32.
For `CN1CCC(Oc2cnc(C#N)cc2-c2ccn3nc(NC(=O)C4CC4)cc3c2)CC1` [Example 85, N-[5-[2-cyano-5-[(1-methyl-4-piperidyl)oxy]-4-pyridyl]pyrazolo[1,5-a]pyridin-2-yl]cyclopropanecarboxamide], the IC50 at SIK2 [1] worked out at 0.00256 µM. The same compound had a pIC50 at SIK2 [2] of 7.29.
The matching figures for `CN1CCO[C@H](COc2cnc(C#N)cc2-c2ccn3nc(NC(=O)C4CC4)cc3c2)C1` [Example 39, N-[5-[2-cyano-5-[[(2S)-4-methylmorpholin-2-yl]methoxy]-4-pyridyl]pyrazolo[1,5-a]pyridin-2-yl]cyclopropanecarboxamide]: 0.00152 µM and 7.44.
For `N#Cc1cc(-c2ccn3nc(NC(=O)C4CC4)cc3c2)c(OC[C@@H]2C[C@H]3CC[C@@H](C2)N3)cn1` [Example 67, N-[5-[5-[[(1S,5R)-8-azabicyclo[3.2.1]octan-3-yl]methoxy]-2-cyano-4-pyridyl]pyrazolo[1,5-a]pyridin-2-yl]cyclopropanecarboxamide], in that order: 0.000631 µM and 8.06.
The matching figures for `N#Cc1cc(-c2ccn3nc(NC(=O)C4CC4)cc3c2)c(OC[C@H](O)C(F)(F)F)cn1` [Example 97, N-[5-[2-cyano-5-[(2S)-3,3,3-trifluoro-2-hydroxy-propoxy]-4-pyridyl]pyrazolo[1,5-a]pyridin-2-yl]cyclopropanecarboxamide]: 0.00609 µM and 6.94.
For `CC#Cc1cc(-c2ccn3nc(NC(=O)C4CC4)cc3c2)c(OC[C@@H]2CCN(C)C2)cn1` [Example 441, N-[5-[5-[[(3R)-1-methylpyrrolidin-3-yl]methoxy]-2-prop-1-ynyl-4-pyridyl]pyrazolo[1,5-a]pyridin-2-yl]cyclopropanecarboxamide], the IC50 at SIK2 [1] came to 0.00106 µM. The pIC50 at SIK2 [2] was 7.92.
For `N#Cc1cc(-c2ccn3nc(NC(=O)C4CC4)cc3c2)c(OC[C@@H]2CCCNC2)cn1` [Example 585, N-[5-[2-cyano-5-[[(3R)-3-piperidyl]methoxy]-4-pyridyl]pyrazolo[1,5-a]pyridin-2-yl]cyclopropanecarboxamide], in that order: 0.00148 µM and 7.77.
The matching figures for `N#Cc1cc(-c2ccn3nc(NC(=O)C4CC4)cc3c2)c(O[C@@H]2CCN[C@H](C(F)(F)F)C2)cn1` (single isomer, unassigned) [Example 8, N-(5-(2-cyano-5-(((2*S,4*R)-2-(trifluoromethyl)piperidin-4-yl)oxy)pyridin-4-yl)pyrazolo[1,5-a]pyridin-2-yl)cyclopropanecarboxamide]: 0.000373 µM and 8.12.
The matching figures for `N#Cc1cc(-c2ccn3nc(NC(=O)C4CC4)cc3c2)c(OCc2cccnc2)cn1` [Example 47, N-[5-[2-Cyano-5-(3-pyridylmethoxy)-4-pyridyl]pyrazolo[1,5-a]pyridin-2-yl]cyclopropanecarboxamide]: 0.0135 µM and 6.81.
Take `CN1CCC(Oc2cnc(C#N)cc2-c2ccn3nc(NC(=O)C4CC4)cc3c2)C1` (single isomer, unassigned) [Example 59, (*S)—N-(5-(2-cyano-5-((1-methylpyrrolidin-3-yl)oxy)pyridin-4-yl)pyrazolo[1,5-a]pyridin-2-yl)cyclopropanecarboxamide]: the IC50 on SIK2 [1] was 0.0047 µM. At SIK2 [2], this compound had a pIC50 of 6.96.
In the case of `N#Cc1cc(-c2ccn3nc(NC(=O)C4CC4)cc3c2)c(O[C@H]2CCN(CC(F)(F)F)C2)cn1` [Example 5, N-[5-[2-cyano-5-[(3S)-1-(2,2,2-trifluoroethyl)pyrrolidin-3-yl]oxy-4-pyridyl]pyrazolo[1,5-a]pyridin-2-yl]cyclopropanecarboxamide], the 50% inhibitory concentration (IC50) on SIK2 [1] was 0.000381 µM. This compound showed a pIC50 on SIK2 [2] of 8.11.
For `CC(=O)N1CCC(Oc2cnc(C#N)cc2-c2ccn3nc(NC(=O)C4CC4)cc3c2)C1` (single isomer, unassigned) [Example 57, (*S)—N-(5-(5-((1-Acetylpyrrolidin-3-yl)oxy)-2-cyanopyridin-4-yl)pyrazolo[1,5-a]pyridin-2-yl)cyclopropanecarboxamide], in that order: 0.0103 µM and 6.58.

The values above are taken from patent US20240158392A1 (Janssen Biotech, Inc., priority 2021, published 2024).
